# Columns and labels:
# Assay type in all cases: in vivo
# Abutilon theophrasti = assay: Test Example 4: herbicidal effect by soil treatment (symbol M); conditions: 320 g/ha
# Procedure, shortened: (§1)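 Seeds were sown in sterilized diluvial soil, covered with about 1.5 cm of soil, and the soil surface was sprayed with a water-diluted emulsion of the compound at a predetermined rate. Plants grew in a greenhouse at 25° C. to 30° C.; effects were scored visually 3 weeks after application.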
# wheat = assay: Test Example 4: effect on crop by soil treatment (symbol e); conditions: 320 g/ha
# Procedure, shortened: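 Plants are raised in a greenhouse (25° C. to 30° C.) from spot-sown seed, which sits under about 1.5 cm of sterilized diluvial soil in a box shared with weed species.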
# Veronica persica [1] = assay: Test Example 5: herbicidal effect by foliage application, plastic box (symbol R); conditions: 320 g/ha, 3 weeks after application
# Procedure, shortened: (§2)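 Post-emergence spray; diluvial soil (sterilized), ~1.5 cm seed cover; greenhouse 25–30° C; 14-day-old plants; water-diluted emulsion at predetermined dose; visual score at 3 wk post-treatment.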
# corn = assay: Test Example 5: effect on crop by foliage application, plastic box (symbol c); conditions: 320 g/ha, 3 weeks after application
# Procedure, shortened: (§3)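 In a plastic box 7 cm deep filled with sterilized diluvial soil, seeds of crops and weeds such as Digitaria ciliaris, Avena fatua and Amaranthus retroflexus are sown in spots and covered with about 1.5 cm of soil before greenhouse growth at 25–30° C.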
# Amaranthus retroflexus = assay: Test Example 4: herbicidal effect by soil treatment (symbol N); conditions: 320 g/ha
# Procedure, shortened: as §1
# Veronica persica [2] = assay: Test Example 4: herbicidal effect by soil treatment (symbol R); conditions: 320 g/ha
# Procedure, shortened: as §1
# Chenopodium album = assay: Test Example 5: herbicidal effect by foliage application, plastic box (symbol O); conditions: 320 g/ha, 3 weeks after application
# Procedure, shortened: as §2
# Galium spurium = assay: Test Example 5: herbicidal effect by foliage application, plastic box (symbol Q); conditions: 320 g/ha, 3 weeks after application
# Procedure, shortened: as §2
# [3] = tested on: Echinochloa oryzacola Vasing.; assay: Test Example 1: herbicidal activity, application before weed generation in submerged conditions (symbol A); conditions: application herbicide amount 320 g/ha
# Procedure, shortened: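 Mixed weed seeds sown in alluvial soil under 4 cm of water, with rice seedlings at the 2.5-leaf stage added. Same-day treatment: emulsion diluted to a set herbicide amount onto the water. Three weeks at 25–30 °C, then graded on a six-step scale.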
# soybean = assay: Test Example 5: effect on crop by foliage application, plastic box (symbol d); conditions: 320 g/ha, 3 weeks after application
# Procedure, shortened: as §3
# Cyperus difformis = assay: Test Example 3: herbicidal effect by foliage application, Wagner pot (symbol E); conditions: application herbicide amount 320 g/ha
# Procedure, shortened: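 Steps: fill pot with alluvial soil; add water to 0.1–0.5 cm depth; sow weed and rice seed; grow 14 days at 25–30 °C; spray diluted emulsion over the leaves; rate effect after 3 weeks.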
SMILES,"M: Abutilon theophrasti, herbicidal effect grade (Abutilon theophrasti)","e: wheat, effect grade on crop (wheat)","R: Veronica persica, herbicidal effect (criteria 0-5) (Veronica persica [1])","c: corn, effect on crop (criteria 0-5) (corn)","N: Amaranthus retroflexus, herbicidal effect grade (Amaranthus retroflexus)","R: Veronica persica, herbicidal effect grade (Veronica persica [2])","O: Chenopodium album, herbicidal effect (criteria 0-5) (Chenopodium album)","Q: Galium spurium, herbicidal effect (criteria 0-5) (Galium spurium)","Herbicidal effect grade, A: Echinochloa oryzacola Vasing. [3]","d: soybean, effect on crop (criteria 0-5) (soybean)","herbicidal effect on E, grade 0-5 (Cyperus difformis)","R: Veronica persica, herbicidal effect grade (Veronica persica [1])","c: corn, effect on crop grade (corn)","O: Chenopodium album, herbicidal effect grade (Chenopodium album)","Q: Galium spurium, herbicidal effect grade (Galium spurium)","d: soybean, effect on crop grade (soybean)"
CON=C(C)CC1CC(OS(=O)(=O)CC[Si](C)(C)C)=C(c2c(C)cc(C)cc2C)C1=O (centres unmarked) [1-144],0 (Herbicidal ratio of 5% or lower (almost no effect)),0 (Herbicidal ratio of 5% or lower (almost no effect)),3 (Herbicidal ratio of 40% or higher and lower than 70%),5 (Herbicidal ratio of 90% or more (almost completely withered)),0 (Herbicidal ratio of 5% or lower (almost no effect)),0 (Herbicidal ratio of 5% or lower (almost no effect)),0 (Herbicidal ratio of 5% or lower (almost no effect)),2 (Herbicidal ratio of 20% or higher and lower than 40%),5 (Herbicidal ratio of 90% or more (almost completely withered)),3 (Herbicidal ratio of 40% or higher and lower than 70%),,,,,,
CON=C(C)CC1CC(OC(=O)N2CCCCC2)=C(c2c(C)cc(C)cc2C)C1=O (centres unmarked) [1-151],0 (Herbicidal ratio of 5% or lower (almost no effect)),0 (Herbicidal ratio of 5% or lower (almost no effect)),1 (Herbicidal ratio of 5% or higher and lower than 20%),4 (Herbicidal ratio of 70% or higher and lower than 90%),0 (Herbicidal ratio of 5% or lower (almost no effect)),0 (Herbicidal ratio of 5% or lower (almost no effect)),0 (Herbicidal ratio of 5% or lower (almost no effect)),0 (Herbicidal ratio of 5% or lower (almost no effect)),5 (Herbicidal ratio of 90% or more (almost completely withered)),2 (Herbicidal ratio of 20% or higher and lower than 40%),,,,,,
CON=C(C)CC1CC(OC(=O)N2CCN(C)CC2)=C(c2c(C)cc(C)cc2C)C1=O (centres unmarked) [1-152],0 (Herbicidal ratio of 5% or lower (almost no effect)),0 (Herbicidal ratio of 5% or lower (almost no effect)),0 (Herbicidal ratio of 5% or lower (almost no effect)),2 (Herbicidal ratio of 20% or higher and lower than 40%),0 (Herbicidal ratio of 5% or lower (almost no effect)),0 (Herbicidal ratio of 5% or lower (almost no effect)),0 (Herbicidal ratio of 5% or lower (almost no effect)),0 (Herbicidal ratio of 5% or lower (almost no effect)),4 (Herbicidal ratio of 70% or higher and lower than 90%),1 (Herbicidal ratio of 5% or higher and lower than 20%),5 (Herbicidal ratio of 90% or more (almost completely withered)),,,,,
C=CCN(CC=C)C(=O)OC1=C(c2c(C)cc(C)cc2C)C(=O)C(CC(C)=NOC)C1 (centres unmarked) [1-153],0 (Herbicidal ratio of 5% or lower (almost no effect)),2 (Herbicidal ratio of 20% or higher and lower than 40%),0 (Herbicidal ratio of 5% or lower (almost no effect)),3 (Herbicidal ratio of 40% or higher and lower than 70%),0 (Herbicidal ratio of 5% or lower (almost no effect)),0 (Herbicidal ratio of 5% or lower (almost no effect)),0 (Herbicidal ratio of 5% or lower (almost no effect)),3 (Herbicidal ratio of 40% or higher and lower than 70%),5 (Herbicidal ratio of 90% or more (almost completely withered)),1 (Herbicidal ratio of 5% or higher and lower than 20%),4 (Herbicidal ratio of 70% or higher and lower than 90%),,,,,
CON=C(C)CC1CC(OC(=O)N(C)c2ccccc2)=C(c2c(C)cc(C)cc2C)C1=O (centres unmarked) [1-159],0 (Herbicidal ratio of 5% or lower (almost no effect)),1 (Herbicidal ratio of 5% or higher and lower than 20%),,,0 (Herbicidal ratio of 5% or lower (almost no effect)),0 (Herbicidal ratio of 5% or lower (almost no effect)),,,5 (Herbicidal ratio of 90% or more (almost completely withered)),,4 (Herbicidal ratio of 70% or higher and lower than 90%),0 (Herbicidal ratio of 5% or lower (almost no effect)),0 (Herbicidal ratio of 5% or lower (almost no effect)),0 (Herbicidal ratio of 5% or lower (almost no effect)),0 (Herbicidal ratio of 5% or lower (almost no effect)),1 (Herbicidal ratio of 5% or higher and lower than 20%)
CON=C(C)CC1CC(OC(=O)c2c(Cl)nn(C)c2Cl)=C(c2c(C)cc(C)cc2C)C1=O (centres unmarked) [1-160],4 (Herbicidal ratio of 70% or higher and lower than 90%),2 (Herbicidal ratio of 20% or higher and lower than 40%),,,4 (Herbicidal ratio of 70% or higher and lower than 90%),0 (Herbicidal ratio of 5% or lower (almost no effect)),,,5 (Herbicidal ratio of 90% or more (almost completely withered)),,5 (Herbicidal ratio of 90% or more (almost completely withered)),3 (Herbicidal ratio of 40% or higher and lower than 70%),4 (Herbicidal ratio of 70% or higher and lower than 90%),2 (Herbicidal ratio of 20% or higher and lower than 40%),4 (Herbicidal ratio of 70% or higher and lower than 90%),2 (Herbicidal ratio of 20% or higher and lower than 40%)
CON=C(C)CC1CC(OS(=O)(=O)c2ccc(C)cc2)=C(c2c(C)cc(C)cc2C)C1=O (centres unmarked) [1-161],0 (Herbicidal ratio of 5% or lower (almost no effect)),3 (Herbicidal ratio of 40% or higher and lower than 70%),,,0 (Herbicidal ratio of 5% or lower (almost no effect)),0 (Herbicidal ratio of 5% or lower (almost no effect)),,,5 (Herbicidal ratio of 90% or more (almost completely withered)),,4 (Herbicidal ratio of 70% or higher and lower than 90%),0 (Herbicidal ratio of 5% or lower (almost no effect)),1 (Herbicidal ratio of 5% or higher and lower than 20%),0 (Herbicidal ratio of 5% or lower (almost no effect)),0 (Herbicidal ratio of 5% or lower (almost no effect)),0 (Herbicidal ratio of 5% or lower (almost no effect))
CON=C(C)CC1CC(OC(=O)c2ccc(S(C)(=O)=O)c(C(=O)OC)c2Cl)=C(c2c(C)cc(C)cc2C)C1=O (centres unmarked) [1-162],5 (Herbicidal ratio of 90% or more (almost completely withered)),4 (Herbicidal ratio of 70% or higher and lower than 90%),,,4 (Herbicidal ratio of 70% or higher and lower than 90%),0 (Herbicidal ratio of 5% or lower (almost no effect)),,,5 (Herbicidal ratio of 90% or more (almost completely withered)),,5 (Herbicidal ratio of 90% or more (almost completely withered)),3 (Herbicidal ratio of 40% or higher and lower than 70%),4 (Herbicidal ratio of 70% or higher and lower than 90%),4 (Herbicidal ratio of 70% or higher and lower than 90%),4 (Herbicidal ratio of 70% or higher and lower than 90%),2 (Herbicidal ratio of 20% or higher and lower than 40%)

# From patent publication US11000033B2, “Ketone or oxime compound, and herbicide” (NISSAN CHEMICAL CORPORATION, priority 2014, dated 2021)
